# Experimental data taken from patent US20160177395A1, “BIOMARKERS FOR THE PREDICTION OF RENAL INJURY” (priority 2007, published 2016).
# Where “and” joins values, the source holds several entries; their conditions need not be identical. Identical values can stand only once. Entries after “also recorded” stand apart in the source; their conditions may differ.
# How the values were obtained:
# [1] = test system: kidney tissues of treated or untreated rats; test: Real-time qRT-PCR of marker transcripts in kidney tissue panel, discovery stage (Table 22); assay type: in vivo, rat; set-up: AI502869_DB71_seg0 normalized Real Time PCR expression: unit not given beside the values; conditions: rat kidney, listed as CadCl
# Protocol: Before RT preparation the RNA was treated with DNA-free (Ambion, cat. No. AM1906) DNase treatment and removal—according to manufacturer protocol. DNase procedure was repeated until no DNA is detected in a PCR reaction using the RNA samples.
# The mixture is then incubated for 5 min at 65° C. and then quickly chilled on ice. Thereafter, 20 μl of 5× SuperscriptII first strand buffer (Invitrogen, Cat. No. Y00146), 9.6 μl 0.1M DTT (Invitrogen, Cat. No. Y00147) and 160 units RNasin (Promega, Cat. No. N251A) are added, and the mixture is incubated for 10 min at 25° C., followed by further incubation at 42° C. for 2 min. […] The resulting cDNA is diluted 1:20 in TE buffer (10 mM Tris pH=8, 1 mM EDTA pH=8).
# cDNA (5 μl), prepared as described above, is used as a template in Real-Time PCR reactions using the SYBR Green I assay (PE Applied Biosystem) with specific primers in 100 nM concentration if not indicated otherwise and UNG Enzyme (Eurogentech or equal) Amplification is effected as follows: 50° C. for 2 min, 95° C. for 10 min, and then 40 cycles of 95° C. for 15 sec, followed by 60° C. for 1 min (if not indicated otherwise). Amplification step is followed by dissociation step. Detection is performed by using the PE Applied Biosystem SDS 7000. The cycle in which the reactions achieved a threshold level (Ct) of fluorescence is registered and is used to calculate the relative transcript quantity in the RT reactions. Non-detected samples are assigned Ct value of 41 and are calculated accordingly. The relative quantity is calculated using the equation Q=efficiencŷ-Ct. The efficiency of the PCR reaction is calculated from a standard curve, created by using serial dilutions of several reverse transcription (RT) reactions. To minimize inherent differences in the RT reaction, the resulting relative quantities are normalized to normalization factor calculated as follows: […]
# The relative quantity (Q) of each housekeeping gene in each sample is calculated as described above. In order to calculate the “relative Q relative to MED” each Q for each HSKP gene is divided by the median quantity of this gene in all panel samples. To finally achieve the normalization factor of each sample the geometric mean of all four “relative Q relative to MED” was calculated. The normalization factor was then used for further calculations.
# The markers of the present invention were tested with regard to their expression in a panel of kidney tissues samples from treated and control rats. Unless otherwise noted, all experimental data relates to the novel polynucleotides and proteins of the present invention, named according to the segment being tested (as expression was tested through RT-PCR as described). Tests were then performed as described in the “Materials and Experimental Procedures” section above.
# The qRT-PCR measurements were normalized according to each samples normalization factor as described in “RT Preparation and Real-Time qRT-PCR Analysis” and further multiplied by a constant factor for ease of viewing.
# [2] = test system: Sprague-Dawley Crl:CD(SD) rats; test: Rat toxicity study, single, 5-day and 28-day treatment (clinical observation, clinical pathology, autopsy, organ weights, histopathology);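 also: control rats received saline intraperitoneally, and the organs examined were adrenals, brain, kidneys, liver, spleen and thymus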
# Protocol: Control animals were treated intraperitoneal with saline.
# Randomization and group allocation: prior to treatment, the animals were assigned to the experimental groups based on their body weight. Mean body weight of each group at randomization was not deviate±20% of the mean population weight. Males and females were randomized separately. For the randomization, a computer program was used.
# The day before autopsy, urinalysis was performed and blood samples were taken for hematology and clinical chemistry examinations.
# On the day of autopsy the animals were anaesthetized with isoflurane, blood was collected for PBMC isolation then subjected to autopsy. Tissues and organs (adrenals, brain, kidneys, liver, spleen and thymus) were weighed and subjected to gross pathological and histopathological examinations.
# [3] = day5, individual animals (F and M)
# [4] = day28, individual animals (F and M)
# [5] = 5-day treatment, compared with controls
compound,measurement,setting,value
[Cl][Cd][Cl] [Cadmium chloride],W41270_DB81_seg11 normalized Real Time PCR,[1]; [3],2.49 and 1.17 and 1.02 and 1.43 and 1.52
same,W64472_DB81_seg2 normalized Real Time PCR,[1]; [3],1.65 and 0.78 and 2.23 and 1.89 and 1.63
same,W83813_DB81_seg27 normalized Real Time PCR,[1]; [3],3.79 and 1.59 and 1.48 and 1.67 and 1.76
same,AA686189_DB71_seg6 normalized Real Time PCR expression,"[1]; day5, individual animals",0.47 and 0.29 and 0.39 and 0.5 and 0.38
same,AA799594_DB71_seg0 normalized Real Time PCR expression,"[1]; day5, individual animals",1.12 and 0.9 and 1.23 and 0.98 and 1.01
same,AA964541_DB71_seg0 normalized Real Time PCR expression,"[1]; day5, individual animals",0.29 and 0.27 and 0.42 (2×) and 0.41
same,AI045075_DB71_seg6 normalized Real Time PCR expression,"[1]; day5, individual animals",0.98 and 0.49 and 0.85 and 0.81 and 0.83
same,AI454051_DB71_seg0 normalized Real Time PCR expression,"[1]; day5, individual animals",1.54 and 1.35 and 0.84 and 0.68 and 0.92
same,AI502869_DB71_seg0 normalized Real Time PCR expression,"[1]; day5, individual animals",0.94 and 0.73 and 0.69 and 0.68 and 0.85
same,AW919147_DB71_seg0 normalized Real Time PCR expression,"[1]; day5, individual animals",1.06 and 1.86 and 1.3 and 0.94 and 1
same,BI293562_DB71_seg2 normalized Real Time PCR expression,"[1]; day5, individual animals",0.43 and 0.63 and 0.48 and 0.88 and 0.78
same,H31045_DB71_seg5 normalized Real Time PCR expression,"[1]; day5, individual animals",0.56 and 0.32 and 0.42 and 0.4 and 0.46
same,H31799_DB71_seg23 normalized Real Time PCR expression,"[1]; day5, individual animals",0.83 and 0.99 and 1.17 and 0.98 and 0.94
same,H31883_DB71_seg13 normalized Real Time PCR expression,"[1]; day5, individual animals",0.87 and 0.86 and 0.83 and 0.78 and 0.64
same,H33998_DB71_seg19 normalized Real Time PCR,[1]; [4],1.26 and 0.59 and 0.43 and 0.45 and 0.26 and 0.41
same,MUSCYCG1R_DB81_seg15-17 normalized Real Time PCR,[1]; [4],0.88 and 0.71 and 0.65 and 0.72 and 0.44 and 0.58
same,RATLRFI_DB71_seg9 normalized Real Time PCR,[1]; [4],0.66 and 0.85 and 1.78 and 0.28 and 0.67 and 0.56
same,RATRAB13X_DB71_seg11-13 normalized Real Time PCR,[1]; [4],1.37 and 0.92 and 0.96 and 1.11 and 1.08 and 0.88
same,RNU24174_DB71_seg8 normalized Real Time PCR,[1]; [4],0.21 and 0.45 and 1.21 and 0.25 (2×) and 0.39
same,W41270_DB81_seg11 normalized Real Time PCR,[1]; [4],0.86 and 0.55 and 0.83 and 0.33 and 0.27 and 0.39
same,W64472_DB81_seg2 normalized Real Time PCR,[1]; [4],0.89 and 0.55 and 0.43 and 0.67 and 0.47 and 0.57
same,W83813_DB81_seg27 normalized Real Time PCR,[1]; [4],0.95 and 0.64 and 0.46 (2×) and 0.34 and 0.53
same,AA686189_DB71_seg6 normalized Real Time PCR expression,"[1]; day28, individual animals",0.64 and 0.58 and 1.94 and 0.4 and 0.51 and 0.82
same,AA799594_DB71_seg0 normalized Real Time PCR expression,"[1]; day28, individual animals",1.14 and 0.88 and 0.37 and 0.66 and 0.77 and 0.83
same,AA964541_DB71_seg0 normalized Real Time PCR expression,"[1]; day28, individual animals",0.32 (2×) and 0.42 and 1.72 and 0.55 and 0.72
same,AI045075_DB71_seg6 normalized Real Time PCR expression,"[1]; day28, individual animals",1.72 and 1.15 and 0.86 and 0.75 and 0.63 and 0.71
same,AI454051_DB71_seg0 normalized Real Time PCR expression,"[1]; day28, individual animals",0.79 and 1.05 and 0.54 and 1.29 and 1.31 and 0.75
same,AI502869_DB71_seg0 normalized Real Time PCR expression,"[1]; day28, individual animals",0.73 and 1.22 and 0.44 and 2.47 and 2.93 and 1.18
same,AW919147_DB71_seg0 normalized Real Time PCR expression,"[1]; day28, individual animals",0.77 and 0.91 and 0.42 and 1.31 and 1.18 and 0.68
same,BI293562_DB71_seg2 normalized Real Time PCR expression,"[1]; day28, individual animals",0.4 and 0.81 and 2.59 and 0.72 and 1.35 and 0.31
same,H31045_DB71_seg5 normalized Real Time PCR expression,"[1]; day28, individual animals",2.88 and 0.83 and 0.57 and 2.23 and 2.41 and 2
same,H31799_DB71_seg23 normalized Real Time PCR expression,"[1]; day28, individual animals",1.59 and 0.94 and 0.67 and 1.05 and 1.02 and 0.76
same,H31883_DB71_seg13 normalized Real Time PCR expression,"[1]; day28, individual animals",0.97 and 1.02 and 0.86 (2×) and 0.95 and 0.8
same,Autopsy findings,[2]; 5-day treatment,No effect
same,Body weight gain,[2]; 5-day treatment,Body weight gain decreased in both sexes; also recorded: Decreased body weight gain was recorded in males
same,Clinical pathology,[2]; 5-day treatment,Slightly increased Gamma GT values were recorded in females; also recorded: ♀: ↑ γGT
same,Clinical symptoms,[2]; 5-day treatment,"mild clinical symptoms (hollow psoas, colic) immediately after the administration"
same,Histopathology / renal damage,[2]; 5-day treatment,No renal damage was found
same,Organ weight,[2]; [5],Lower thymus weights
same,Water consumption,[2]; [5],Decrease in Tobramycin and Cadmium chloride treated females
same,Body weight and body weight gain,[2]; 28-day treatment,affected body weight gain in both sexes; also recorded: Effect on body weight and body weight gain was seen
same,Clinical symptoms,[2]; 28-day treatment,"Mild clinical symptoms (hollow psoas, colic) were recorded in both sexes; also recorded: Clinical symptoms were observed"
same,Histopathology / nephrotoxicity,[2]; 28-day treatment,significant nephrotoxicity was found only in a single female; also recorded: ♂: lymphoid depletion
same,Water consumption,[2]; 28-day treatment,Slightly lower water consumption was recorded in males
same,Clinical pathology,"[2]; 28-day treatment, blood and urine",AST (Aspartate Aminotransferase) values were elevated in both sexes; also recorded: A few transitional epithelial cells were observed in the urine of females; also recorded: ♀: trans. epith
same,"Water consumption, males","[2]; 28-day treatment, compared with controls",Sight decrease during the last week
same,Decreasing order of nephrotoxicity at histopathological examination,"[2]; 28-day treatment, females","Cisplatin, Cadmium chloride, Gentamycin, Doxorubicin and Tobramycin in females"
same,Autopsy findings,"[2]; 28-day treatment, male and female rats","Round bordered spleen and liver and thickening of peritoneum were recorded in both sexes; also recorded: Pale and enlarged kidneys were found in a single female; also recorded: Round bordered liver, enlarged spleen and thickening of the peritoneum were found in both sexes"
same,Organ weight,"[2]; 28-day treatment, male and female rats, compared with controls",higher liver and spleen weight; also recorded: increased weight of kidneys and decreased thymus were recorded in females; also recorded: Increased liver weights in groups of both sexes; also recorded: Higher weights of kidneys in females; also recorded: Weights of spleen were higher in Gentamycin treated males and Cadmium chloride treated groups of both sexes; also recorded: Decreased thymus weights
same,Clinical symptoms,[2]; single and 5-day treatment,Clinical symptoms were observed only in Cadmium chloride groups of both sexes
same,Body weight gain,[2]; single treatment,Decreased body weight gain was recorded in both sexes
same,Clinical pathology,[2]; single treatment,Lower lymphocytes and increased neutrophils counts were found in males
same,Clinical symptoms,[2]; single treatment,"Mild clinical symptoms (hollow psoas, colic) were observed in both sexes"
